Where two headings read alike, the source gives them in different places. Peptide text beside a SMILES is read from it.
Key:
[1] = target: T1, human δ opioid receptors (hDOR) (Homo sapiens, UniProt P41143); assay: Radioligand competition binding, [3H]DPDPE, hDOR membranes
T1 construct: expressed in transfected cells; host or cells: HN9.10 neuroblastoma cell line, pCDNA3, neomycin-selected clones

[2] = target: T2, rat μ opioid receptors (rMOR) (Rattus norvegicus, UniProt P33535); assay: Radioligand competition binding, [3H]DAMGO, rMOR membranes
T2 construct: expressed in transfected cells; host or cells: HN9.10 neuroblastoma cell line, pCDNA3, neomycin-selected clones
T2 sequence (P33535 whole entry): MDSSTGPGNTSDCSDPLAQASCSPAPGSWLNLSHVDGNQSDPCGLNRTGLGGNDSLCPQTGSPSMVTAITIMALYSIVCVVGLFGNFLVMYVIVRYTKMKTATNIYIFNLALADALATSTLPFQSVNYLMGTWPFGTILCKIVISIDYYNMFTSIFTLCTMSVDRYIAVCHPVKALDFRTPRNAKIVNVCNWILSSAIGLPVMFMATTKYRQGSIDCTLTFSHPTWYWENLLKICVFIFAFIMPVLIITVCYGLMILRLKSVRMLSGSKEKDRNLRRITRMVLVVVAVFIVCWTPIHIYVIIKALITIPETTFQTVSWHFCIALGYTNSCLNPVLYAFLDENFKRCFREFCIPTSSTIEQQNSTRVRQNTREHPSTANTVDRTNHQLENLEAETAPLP

rat NK1 (rNK1) receptor = target: T3, rat NK1 (rNK1) receptor (Rattus norvegicus, UniProt P14600); assay: Radioligand competition binding, [3H]substance P, rNK1/CHO membranes; conditions: for IC50: LogIC50, rNK1, [3H]Substance P, logarithm of IC50 (negative)
T3 construct: expressed in transfected cells; host or cells: CHO (rNK-1/CHO cell line from Dr. James Krause)
T3 sequence (P14600 whole entry): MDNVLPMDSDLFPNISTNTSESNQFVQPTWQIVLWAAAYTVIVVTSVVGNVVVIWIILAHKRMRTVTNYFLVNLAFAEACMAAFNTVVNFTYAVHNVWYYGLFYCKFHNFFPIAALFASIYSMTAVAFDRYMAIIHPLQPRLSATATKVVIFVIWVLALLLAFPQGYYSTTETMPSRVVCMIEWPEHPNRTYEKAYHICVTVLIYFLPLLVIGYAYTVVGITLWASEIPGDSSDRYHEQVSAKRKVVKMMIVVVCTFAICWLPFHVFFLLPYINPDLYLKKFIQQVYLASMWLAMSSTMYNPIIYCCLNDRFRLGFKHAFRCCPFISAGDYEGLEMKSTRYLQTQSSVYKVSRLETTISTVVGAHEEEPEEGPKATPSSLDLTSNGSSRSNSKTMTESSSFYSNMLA

[3] = target: T4, human NK1 receptor (hNK1) (Homo sapiens, UniProt P25103); assay: Radioligand competition binding, [3H]-Substance P, hNK1
T4 construct: expressed in transfected cells
T4 sequence (P25103 whole entry): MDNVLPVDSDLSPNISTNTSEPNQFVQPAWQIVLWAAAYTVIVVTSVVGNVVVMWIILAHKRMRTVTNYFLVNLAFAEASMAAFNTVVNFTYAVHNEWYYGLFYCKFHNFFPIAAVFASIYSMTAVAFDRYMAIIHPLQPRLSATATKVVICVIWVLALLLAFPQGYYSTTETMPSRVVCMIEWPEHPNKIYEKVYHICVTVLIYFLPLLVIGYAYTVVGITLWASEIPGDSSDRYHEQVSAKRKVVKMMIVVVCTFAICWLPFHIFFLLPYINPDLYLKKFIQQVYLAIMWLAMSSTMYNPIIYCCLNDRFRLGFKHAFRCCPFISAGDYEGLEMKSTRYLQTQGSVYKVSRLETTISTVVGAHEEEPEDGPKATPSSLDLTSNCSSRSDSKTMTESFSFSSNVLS

[4] = target: T1, human δ opioid receptors (hDOR); assay: [35S]GTP-γ-S binding assay, hDOR; format: biochemical
[5] = target: T2, rat μ opioid receptors (rMOR); assay: biochemical; format: biochemical
δ opioid receptors (MVD) = target: T5, δ opioid receptors (MVD) (Mus musculus, UniProt P32300); assay: Mouse isolated vas deferens (MVD) assay, opioid agonist
T5 construct: from tissue; host or cells: mouse (ICR) isolated vas deferens
T5 sequence (P32300 whole entry): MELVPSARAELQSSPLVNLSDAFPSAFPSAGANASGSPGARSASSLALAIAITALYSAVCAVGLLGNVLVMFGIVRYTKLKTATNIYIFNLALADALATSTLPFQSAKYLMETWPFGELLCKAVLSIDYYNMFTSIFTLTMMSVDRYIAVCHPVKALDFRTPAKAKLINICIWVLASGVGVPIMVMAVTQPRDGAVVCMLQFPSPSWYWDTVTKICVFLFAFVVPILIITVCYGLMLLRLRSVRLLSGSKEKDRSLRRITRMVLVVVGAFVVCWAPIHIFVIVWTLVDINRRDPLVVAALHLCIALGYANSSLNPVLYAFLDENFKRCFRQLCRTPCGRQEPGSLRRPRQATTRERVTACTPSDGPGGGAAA

μ opioid receptors (GPI) = assay: Guinea pig isolated ileum (GPI) assay, opioid agonist;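 further: inhibition of electrically evoked contractions (0.1 Hz, 0.4 msec, supramaximal voltage) in organ baths at 37 °C, contraction height 3 min after each cumulative dose versus the 1 min before dosing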
[6] = target: T6, Substance P receptors (guinea pig NK1) (Cavia porcellus, UniProt P30547); assay: Guinea pig isolated ileum (GPI) assay with substance P stimulation in presence of 1 μM naloxone
T6 construct: from tissue; host or cells: guinea pig (Hartley) ileum LMMP, 1 μM naloxone present
T6 sequence (P30547 whole entry): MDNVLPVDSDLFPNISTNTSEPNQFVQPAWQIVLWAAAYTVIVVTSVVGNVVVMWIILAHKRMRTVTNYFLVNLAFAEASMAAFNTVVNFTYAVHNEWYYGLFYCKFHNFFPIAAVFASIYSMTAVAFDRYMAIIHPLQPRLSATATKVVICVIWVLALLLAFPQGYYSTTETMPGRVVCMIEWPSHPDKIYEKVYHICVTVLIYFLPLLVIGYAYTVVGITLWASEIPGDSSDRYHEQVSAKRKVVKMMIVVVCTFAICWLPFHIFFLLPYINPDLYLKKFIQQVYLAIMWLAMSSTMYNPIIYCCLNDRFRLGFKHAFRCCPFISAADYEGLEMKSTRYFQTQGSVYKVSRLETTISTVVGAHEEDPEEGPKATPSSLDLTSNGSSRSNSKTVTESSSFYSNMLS

[7] = In vitro stability in rat plasma at 37° C.; format: in vitro ADME; conditions: rat, rat plasma, read-out: half life (T1/2) in rat plasma (converted)
Description: The derivative compounds were tested for their metabolite stability. The compounds were incubated in rat plasma at 37° C., and aliquots were withdrawn at various time points and analyzed by HPLC to determine the concentration of remaining compound derivatives (FIGS. 15-16, 36, and 47-48).
In Vitro Stability of compound derivatives in Rat Plasm (Yamamoto, 2007, J. Am. Chem. Soc. submitted). Stock solution of compounds (50 mg/mL in DMSO) were diluted 1000-fold into rat plasma (Lot 24927, Pel-Freez Biologicals, Rogers, Ak.) to result in an incubation concentration of 50 μg/mL. All samples were incubated at 37° C. for 6 h, and 200 μL of aliquots were withdrawn at 1 h, 2 h, 4 h and 6 h. […] The samples were run in triplicate. Discussion.

[8] = Table 39, read-out: GTP binding hDOR Emax
[9] = Table 39, read-out: GTP binding rMOR Emax
[10] = Table 39, read-out: GPI/LMMP opioid(mu) agonist (IC50; nM)
[11] = Table 39, read-out: Affinity rNK1 (Ki; nM)
[12] = Table 21, HN9.10 cell, read-out: EC50 (nM), hDOR
[13] = Table 21, net total bound/basal binding × 100, read-out: Emax (%), hDOR
[14] = Table 39, read-out: GTP binding hDOR EC50
[15] = Table 21, net total bound/basal binding × 100, read-out: Emax (%), rMOR
[16] = Table 39, read-out: GTP binding rMOR EC50
[17] = net total bound/basal binding × 100, read-out: Emax, rMOR, [35S]GTP-γ-S binding
[18] = electrically stimulated isolated tissue, read-out: MVD (δ), IC50

T1 sequence (P41143 whole entry): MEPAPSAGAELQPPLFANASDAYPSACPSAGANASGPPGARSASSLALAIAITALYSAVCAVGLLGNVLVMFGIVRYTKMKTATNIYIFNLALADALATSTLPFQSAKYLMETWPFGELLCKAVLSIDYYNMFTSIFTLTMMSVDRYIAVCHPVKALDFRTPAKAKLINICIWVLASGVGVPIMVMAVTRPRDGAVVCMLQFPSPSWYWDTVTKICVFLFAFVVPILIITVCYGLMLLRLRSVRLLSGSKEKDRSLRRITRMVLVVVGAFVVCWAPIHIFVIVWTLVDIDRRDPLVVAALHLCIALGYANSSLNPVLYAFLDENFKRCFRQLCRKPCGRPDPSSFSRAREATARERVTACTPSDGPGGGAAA

Compound `CSCC[C@H](NC(=O)[C@H](Cc1ccccc1)NC(=O)CNC(=O)[C@@H](C)NC(=O)[C@@H](N)Cc1c(C)cc(O)cc1C)C(=O)N1CCC[C@H]1C(=O)N[C@@H](CC(C)C)C(=O)N[C@@H](Cc1c[nH]c2ccccc12)C(=O)OCc1cc(C(F)(F)F)cc(C(F)(F)F)c1` [TY033] has a Ki [1] of 0.22 nM, a Ki [2] of 1.2 nM and a Ki (rat NK1 (rNK1) receptor; Affinity rNK1 (Ki; nM), Table 29) of 0.96 nM. For the same compound, the Ki [3] was 1.2 nM, the Emax [4, 8] was 200% and the Emax [5, 9] was 59%. The IC50 (δ opioid receptors (MVD)) was 1.27 nM, the IC50 (μ opioid receptors (GPI); Table 30, read-out: GPI/LMMP Opioid(m) Agonist (IC50; nM)) was 100 nM and the IC50 (μ opioid receptors (GPI); [10]) was 100 nM. It also gave a Kb ([6]; GPI/LMMP Substance P Antagonist (Ke; nM), Table 30) of 24.5 nM.
`CCCC[C@@H]1NC(=O)[C@H](Cc2ccccc2)NC(=O)CNC(=O)[C@H](NC(=O)[C@@H](N)Cc2ccc(O)cc2)CSSC[C@@H](C(=O)N[C@@H](Cc2c[nH]c3ccccc23)C(=O)NCc2cc(C(F)(F)F)cc(C(F)(F)F)c2)NC(=O)[C@@H]2CCCN2C1=O` [TY035, [D-Cys^2, Cys^7]TY027] (HELM PEPTIDE1{Y.[dC].G.F.[Nle].P.C.W.[FC(F)(F)c1cc(CN[*:1])cc(C(F)(F)F)c1]}$PEPTIDE1,PEPTIDE1,2:R3-7:R3$$$V2.0; N-terminus assumed) gave an IC50 [1] of 2.51 nM, a Ki ([1]; read-out: Ki, hDOR, [3H]DPDPE) of 1.3 nM and an IC50 [2] of 158 nM. The “Ki(μ)/Ki(δ)” value ([2]; Table 20, ratio rMOR Ki / hDOR Ki) was 61, the Ki ([2]; read-out: Ki, rMOR, [3H]DAMGO) was 79 nM and the IC50 (rat NK1 (rNK1) receptor; Table 20, CHO cell membranes) was 100 nM. The “Ki(hNK1)/Ki(rNK1)” value (rat NK1 (rNK1) receptor; Table 20, species ratio) was 30, the Ki (rat NK1 (rNK1) receptor; [11]) was 30 nM and the Ki (rat NK1 (rNK1) receptor; read-out: Ki (nM), rNK1, [3H]Substance P, Table 20, CHO cell membranes) was 30 nM. It also gave an IC50 [3] of 0.2 nM, a Ki ([3]; read-out: Ki, hNK1) of 0.1 nM and an EC50 [4, 12] of 0.02 nM. For the same compound, the EC50 ([4]; Table 21, logarithm of EC50 (negative), HN9.10 cell, read-out: LogEC50, hDOR (converted)) was 0.0158 nM, the Emax [4, 13] was 11% and the EC50 [4, 14] was 0.02 nM. It also gave an Emax [4, 8] of 11%, an Emax ([4]; net total bound/basal binding × 100, read-out: Emax, hDOR, [35S]GTP-γ-S binding) of less than 20% and an EC50 ([5]; LogEC50, rMOR) of 39.8 nM. For the same compound, the EC50 ([5]; read-out: EC50 (nM), rMOR) was 36 nM, the Emax ([5]; read-out: Emax (%), rMOR) was 41% and the EC50 ([5]; read-out: GTP binding rMOR EC50) was 36 nM. The Emax ([5]; read-out: GTP binding rMOR Emax) was 39%, the IC50 (δ opioid receptors (MVD); Table 22, electrically stimulated isolated tissue, read-out: Opioid agonist MVD (δ), IC50) was 85 ± 18 nM and the IC50 (δ opioid receptors (MVD); Table 39, read-out: MVD opioid(delta) agonist (IC50; nM)) was 84.7 nM. For the same compound, the IC50 (μ opioid receptors (GPI); Table 22, electrically stimulated isolated tissue, read-out: Opioid agonist GPI (μ), IC50) was 1000 ± 200 nM, the IC50 (μ opioid receptors (GPI); [10]) was 1010 nM and the Kb ([6]; Substance P antagonist, GPI, Ke (nM), Table 22, in the presence of 1 μM naloxone) was 2.2 ± 0.6 nM. The “GPI/LMMP SP Agonist (IC50; nM)” value ([6]; Table 39, at 30 nM) was “none” and the half-life at 50 μg/mL [7] was greater than 6 h.
`CC(C)C[C@H](NC(=O)[C@@H]1CCCN1C(=O)[C@H]1CSSC[C@@H](NC(=O)[C@@H](N)Cc2ccc(O)cc2)C(=O)NCC(=O)N[C@@H](Cc2ccccc2)C(=O)N1)C(=O)N[C@@H](Cc1c[nH]c2ccccc12)C(=O)NCc1cc(C(F)(F)F)cc(C(F)(F)F)c1` [TY037, [D-Cys^2, D-Cys^5]TY027] showed an IC50 [1] of 15.8 nM, a Ki ([1]; Table 39, read-out: Affinity hDOR (Ki; nM)) of 7.8 nM and a Ki ([1]; read-out: Ki (nM), hDOR, [3H]DPDPE, Table 20, HN9.10 cell membranes) of 7.8 nM. For the same compound, the IC50 [2] was 126 nM, the Ki ([2]; read-out: Ki, rMOR, [3H]DAMGO) was 52 nM and the IC50 (rat NK1 (rNK1) receptor; Table 20, CHO cell membranes) was 126 nM. For the same compound, the Ki (rat NK1 (rNK1) receptor; [11]) was 45.5 nM, the EC50 [4, 12] was 14 nM and the EC50 [4, 14] was 98.2 nM. The Emax [4, 8] was 26%, the Emax [5, 15] was 12% and the EC50 [5, 16] was 52.9 nM. For the same compound, the Emax [5, 9] was 8%, the Emax [5, 17] was less than 20% and the IC50 (δ opioid receptors (MVD); [18]) was 8.3 nM. The IC50 (μ opioid receptors (GPI); [10]) was 284 nM, the IC50 (μ opioid receptors (GPI); electrically stimulated isolated tissue, read-out: GPI (μ), IC50) was 280 nM and the “Substance P antagonist, GPI, Ke” value ([6]; in the presence of 1 μM naloxone) was 4.7 nM. It also gave a half-life at 50 μg/mL [7] of 3.7 h.
In the case of `CC(C)C[C@H](NC(=O)[C@@H]1CCCN1C(=O)[C@@H]1CSSC[C@@H](NC(=O)[C@@H](N)Cc2ccc(O)cc2)C(=O)NCC(=O)N[C@@H](Cc2ccccc2)C(=O)N1)C(=O)N[C@@H](Cc1c[nH]c2ccccc12)C(=O)NCc1cc(C(F)(F)F)cc(C(F)(F)F)c1` [TY039], the IC50 [1] is reported as 25.1 nM, the IC50 [2] is reported as 398 nM and the Ki ([2]; read-out: Ki, rMOR, [3H]DAMGO) is reported as 200 nM. For the same compound, the IC50 (rat NK1 (rNK1) receptor; Table 20, CHO cell membranes) was 1580 nM, the EC50 [4, 12] was 0.9 nM and the Emax [4, 13] was 37%. For the same compound, the EC50 [4, 14] was 50.9 nM, the Emax [4, 8] was 37% and the EC50 ([5]; Table 21, HN9.10 cell, read-out: EC50 (nM), rMOR) was 118 nM. The EC50 ([5]; Table 21, logarithm of EC50 (negative), HN9.10 cell, read-out: LogEC50, rMOR (converted)) was 126 nM, the Emax [5, 15] was 17% and the EC50 [5, 16] was 118 nM. For the same compound, the Emax [5, 9] was 20%, the Emax [5, 17] was less than 20% and the IC50 (δ opioid receptors (MVD); [18]) was 73 nM. The “Opioid agonist GPI (μ), % inh.” value (μ opioid receptors (GPI); Table 22, at 1 uM, no antagonist activity observed at the tested concentration) was 10% inh. at 1 uM^d, the “GPI/LMMP opioid(mu) Antagonist” value (μ opioid receptors (GPI); Table 39) was “none” and the “GPI/LMMP opioid(mu) agonist, % at 1 uM” value (μ opioid receptors (GPI); Table 39, at 1 uM) was 10.1% at. For the same compound, the “agonist effect in the functional assay using GPI” value (μ opioid receptors (GPI); at the concentration of 1 μM, words) was “nearly no agonist effect” and the half-life at 50 μg/mL [7] was greater than 6 h.

Reference: patent US8026218B2, “Bifunctional analgesic compounds for opioid receptor agonists and neurokinin-1 receptor antagonists” (The University of Arizona, priority 2006, dated 2011)
